According to US20110039721A1, “METHOD FOR PREDICTION ABOUT CARCINOGENICITY OF SUBSTANCE IN RODENT” (Chemicals Evaluation and Research Institute, priority 2007, published 2011):

System: mRNA expressed from the genes (A) to (D) in rat liver
Experiment: Behavior of genes (mRNA expression level, oligo-DNA microarray) in rat liver after 28-day oral administration
Assay type: in vivo
Description: A test solution was prepared by dissolving each of the carcinogens and the non-carcinogens shown in Tables 2 to 6 in the corresponding solvent shown in Tables 2 to 6. Each of the thus prepared test solutions and the solvents used for the preparation was administered by oral gavage to rats in each group. As the rats, male rats (F344 SPF rats) at 5 weeks of age obtained from Charles River Laboratories Japan, Inc. were used. The animals were divided into groups, each containing four individuals. The volume of the solvent administered to the vehicle control group was set to the same volume as that of the test solution administered to the carcinogen administration group or the non-carcinogen administration group. The administration of the test solution or the solvent was performed once daily for 28 days. Apiece was excised from the liver of each of the rats after a lapse of 28 days from the initiation of the administration, and the total RNA was extracted and purified.
The expression level of mRNA was compared between each of the chemical substance administration groups and the corresponding vehicle control group, and genes that satisfy the requirements described in (A) to (D) were selected, respectively.
The case where the expression level of mRNA in the carcinogen administration group or the non-carcinogen administration group is 1.5 times or more or 1/1.5 or less of the expression level of the corresponding mRNA expressed in the control group was determined to be significant. In this connection, the determination as to whether or not the change is significant was performed by taking into consideration the direction of increase or decrease in the expression level. In the case where the direction of increase or decrease is different as compared with the case where another carcinogen was administered, the change was determined to be not significant.

[1] = gene group (A), Unigene No. Rn.167075
[2] = gene group (C), Unigene No. Rn.120914

With `O=C1O[C@H]([C@@H](O)CO)C(O)=C1O` [TS010, L-Ascorbic acid] as the molecule, how does the “Behavior of gene caused by administration of chemical substance, Gene No. 4846” value (gene group (A), Unigene No. Rn.144554) read?
The value was “−”.

And the “Behavior of gene caused by administration of chemical substance, Gene No. 2026” value [1]?
The value was “−”.

And the “Behavior of gene caused by administration of chemical substance, Gene No. 4218” value [1]?
Its value is “−”.

And the “Behavior of gene caused by administration of chemical substance, Gene No. 6182” value (gene group (A), Unigene No. Rn.5834)?
Its value is “−”.

And the “Behavior of gene caused by administration of chemical substance, Gene No. 5600” value (gene group (A), Unigene No. Rn.9836)?
The value was “−”.

And the “Behavior of gene caused by administration of chemical substance, Gene No. 1494” value (gene group (B), Unigene No. Rn.1430)?
Its value is “−”.

What about the “Behavior of gene caused by administration of chemical substance, Gene No. 2045” value (gene group (B), Unigene No. Rn.19329) of the same molecule?
Its value is “−”.

And the “Behavior of gene caused by administration of chemical substance, Gene No. 2203” value (gene group (B), Unigene No. Rn.21240)?
Its value is “−”.

What about the “Behavior of gene caused by administration of chemical substance, Gene No. 533” value (gene group (C), Unigene No. Rn.106184) of the same molecule?
The value was “−”.

And the “Behavior of gene caused by administration of chemical substance, Gene No. 725” value (gene group (C), Unigene No. Rn.108075)?
Its value is “−”.

And the “Behavior of gene caused by administration of chemical substance, Gene No. 1163” value (gene group (C), Unigene No. Rn.11766)?
Its value is “−”.

What about the “Behavior of gene caused by administration of chemical substance, Gene No. 4973” value (gene group (C), Unigene No. Rn.118529) of the same molecule?
The value was “−”.

What about the “Behavior of gene caused by administration of chemical substance, Gene No. 4095” value (gene group (C), Unigene No. Rn.119024) of the same molecule?
The value was “−”.

What about the “Behavior of gene caused by administration of chemical substance, Gene No. 1334” value [2] of the same molecule?
The value was “−”.

And the “Behavior of gene caused by administration of chemical substance, Gene No. 6620” value [2]?
The value was “−”.

What about the “Behavior of gene caused by administration of chemical substance, Gene No. 6303” value (gene group (C), Unigene No. Rn.123063) of the same molecule?
Its value is “−”.

What about the “Behavior of gene caused by administration of chemical substance, Gene No. 5878” value (gene group (C), Unigene No. Rn.143213) of the same molecule?
The value was “−”.

What about the “Behavior of gene caused by administration of chemical substance, Gene No. 1131” value (gene group (C), Unigene No. Rn.144946) of the same molecule?
The value was “+”.

And the “Behavior of gene caused by administration of chemical substance, Gene No. 1562” value (gene group (C), Unigene No. Rn.14744)?
The value was “−”.

And the “Behavior of gene caused by administration of chemical substance, Gene No. 1741” value (gene group (C), Unigene No. Rn.1647)?
Its value is “−”.

And the “Behavior of gene caused by administration of chemical substance, Gene No. 893” value (gene group (C), Unigene No. Rn.164817)?
The value was “−”.

What about the “Behavior of gene caused by administration of chemical substance, Gene No. 6026” value (gene group (C), Unigene No. Rn.167685) of the same molecule?
Its value is “−”.

And the “Behavior of gene caused by administration of chemical substance, Gene No. 154” value (gene group (C), Unigene No. Rn.185941)?
Its value is “−”.

What about the “Behavior of gene caused by administration of chemical substance, Gene No. 1993” value (gene group (C), Unigene No. Rn.18728) of the same molecule?
Its value is “−”.

And the “Behavior of gene caused by administration of chemical substance, Gene No. 813” value (gene group (C), Unigene No. Rn.201760)?
The value was “−”.

What about the “Behavior of gene caused by administration of chemical substance, Gene No. 2494” value (gene group (C), Unigene No. Rn.23969) of the same molecule?
The value was “−”.

And the “Behavior of gene caused by administration of chemical substance, Gene No. 2546” value (gene group (C), Unigene No. Rn.24561)?
The value was “−”.

What about the “Behavior of gene caused by administration of chemical substance, Gene No. 3776” value (gene group (C), Unigene No. Rn.43232) of the same molecule?
The value was “−”.

And the “Behavior of gene caused by administration of chemical substance, Gene No. 3929” value (gene group (C), Unigene No. Rn.4620)?
Its value is “−”.

And the “Behavior of gene caused by administration of chemical substance, Gene No. 1119” value (gene group (C), Unigene No. Rn.9757)?
Its value is “−”.

And the “Behavior of gene caused by administration of chemical substance, Gene No. 6742” value (gene group (C), Unigene No. Rn.9779)?
Its value is “−”.

What about the “Behavior of gene caused by administration of chemical substance, Gene No. 5634” value (gene group (C), Unigene No. Rn.9862) of the same molecule?
Its value is “−”.

What about the “Behavior of gene caused by administration of chemical substance, Gene No. 5726” value (gene group (D), Unigene No. Rn.9939) of the same molecule?
Its value is “−”.
